According to patent US20250041306A1, “TARGETED PROTEASE DEGRADATION (TED) PLATFORM” (EUBULUS BIOTHERAPEUTICS INC., priority 2021, published 2025):
Like-named read-outs stand apart in the source and are kept apart here.

How the values were obtained:
Type in all cases: cell-based
[1] = test system: Human Small Cell Lung Cancer NCI-H82; test: Cell proliferation experiment (Alarm blue), H82
Experimental: (§1) The cells were cultured in conventional ways, and the cells should be passed for at least 2 generations before plating. Cells at the logarithmic growth phase were collected, prepared into single cell suspensions and counted. The concentration of cells was adjusted to desired concentration, and cells were inoculated into a 96-well cell culture plate at 100 μl per well. 100 μL of complete medium of the test compound were added to each well, 2 replicate wells for each concentration were set up, and diluted with a 5-fold gradient, and continued to culture for 72 h. All cells were subjected to EC50 test for corresponding samples.
(§2) The fluorescence intensity of each well was detected using the Alarm blue method, and IC50 was calculated.
(§3) IC50 was calculated according to the following formula:
(§4) [formula] • wherein Min, Max and Slope represent the minimum, maximum and slope respectively.

[2] = test system: human gastric carcinoma cells N87; test: Cell proliferation experiment (Alarm blue), N87
Experimental: as §1, §2, §3, §4

[3] = test system: Human Small Cell Lung Cancer H69; test: Cell proliferation experiment (Alarm blue), H69; settings: H69 cells, 72 h culture, read-out: Anti cell proliferative activity EC50, H69
Experimental: as §1, §2, §3, §4

[4] = test system: Human Colon Cancer cells Colo205; test: Cell proliferation experiment (Alarm blue), Colo205; settings: Colo205 cells, 72 h culture, read-out: Anti cell proliferative activity EC50, Colo205
Experimental: as §1, §2, §3, §4

Human Colon Cancer HT-29 = test: Cell proliferation experiment (Alarm blue), HT-29; settings: HT-29 cells, 72 h culture, read-out: Anti cell proliferative activity EC50, HT-29
Experimental: as §1, §2, §3, §4

[5] = Homo sapiens, NCI-H82, H82 cells, 72 h culture, read-out: Anti cell proliferative activity EC50, H82
[6] = Homo sapiens, N87 cells, 72 h culture, read-out: Anti cell proliferative activity EC50, N87
[7] = Homo sapiens, NCI-H82, 72 h, H82 cells, 72 h culture, read-out: Anti cell proliferative activity EC50, H82
[8] = Homo sapiens, 72 h, N87 cells, 72 h culture, read-out: Anti cell proliferative activity EC50, N87
[9] = H82 cells, 72 h culture, read-out: Anti cell proliferative activity EC50, H82
[10] = N87 cells, 72 h culture, read-out: Anti cell proliferative activity EC50, N87

Compound	EC50 ([3]; Homo sapiens, NCI-H69) [nM]	EC50 [1, 7] [nM]	EC50 [2, 8] [nM]	EC50 ([4]; Homo sapiens, COLO 205, 72 h) [nM]	EC50 (Human Colon Cancer HT-29; Homo sapiens) [nM]	EC50 [1, 9] [nM]	EC50 [2, 10] [nM]	EC50 [3] [nM]	EC50 [4] [nM]	further results
CNC(=O)c1ccccc1Nc1nc(Nc2ccc(N3CCN(C(=O)NC4CCN(C(=O)CNCCC#Cc5ccc6c(c5)CN(C5CCC(=O)NC5=O)C6=O)CC4)CC3)cc2)ncc1Cl (stereo not shown) [UB-181235]	> 1000									EC50 [1, 5]: 253 nM; EC50 [2, 6]: 813 nM; EC50 ([4]; Homo sapiens, COLO 205): 144 nM
NC(=O)c1ccccc1Nc1nc(Nc2ccc(N3CCN(C(=O)NC4CCN(C(=O)CNCCC#Cc5ccc6c(c5)CN(C5CCC(=O)NC5=O)C6=O)CC4)CC3)cc2)ncc1Cl (stereo not shown) [UB-181236]	> 1000	603	92.5	146						
CNC(=O)c1ccccc1Nc1nc(Nc2ccc(N3CCN(C(=O)N[C@H]4CC[C@@H](N(CCC#Cc5ccc6c(c5)CN(C5CCC(=O)NC5=O)C6=O)C(=O)OCc5ccc(NC(=O)[C@H](CC(N)=O)NC(=O)[C@H](C)NC(=O)[C@H](C)NC(=O)COCCOC)cc5)CC4)CC3)cc2)ncc1Cl (stereo partly shown) [UB-181237]	> 1000				902					EC50 [1, 5]: 141 nM; EC50 [2, 6]: 308 nM; EC50 ([4]; Homo sapiens, COLO 205): 277 nM
CC[C@H]1C(=O)N(C)c2cnc(Nc3ccc(-c4cn([C@H]5CC[C@@H](N(CCOCCC#Cc6cccc7c6CN(C6CCC(=O)NC6=O)C7=O)C(=O)OCc6ccc(NC(=O)[C@H](CCCNC(N)=O)NC(=O)[C@@H](NC(=O)CCOCCOCCOCCOCCOCCOCCOCCOCCNC(=O)CCN7C(=O)C=CC7=O)C(C)C)cc6)CC5)nn4)cc3OC)nc2N1C1CCCC1 (stereo partly shown) [UB-181238]										EC50 ([1]; 72 h): > 1000 nM; EC50 ([2]; 72 h): > 1000 nM
NC(=O)c1ccccc1Nc1nc(Nc2ccc(N3CCN(C(=O)NC4CCN(C(=O)CNCCC#Cc5ccc6c(c5)CN(C5CCC(=O)NC5=O)C6=O)CC4)CC3)cc2)ncc1Cl (stereo not shown) [UB-181239]						354	132	> 1000	175	
CNC(=O)c1ccccc1Nc1nc(Nc2ccc(N3CCN(C(=O)N[C@H]4CC[C@@H](N(CCC#Cc5ccc6c(c5)CN(C5CCC(=O)NC5=O)C6=O)C(=O)OCc5ccc(NC(=O)[C@H](CC(N)=O)NC(=O)[C@H](C)NC(=O)[C@H](C)NC(=O)COCCOCCOCCOC)cc5)CC4)CC3)cc2)ncc1Cl (stereo partly shown) [UB-181242]	> 1000				> 1000					EC50 [1, 5]: 94.2 nM; EC50 [2, 6]: 226 nM; EC50 ([4]; Homo sapiens, COLO 205): 75.2 nM
CNC(=O)c1ccccc1Nc1nc(Nc2ccc(N3CCN(C(=O)N[C@H]4CC[C@@H](N(CCC#Cc5ccc6c(c5)CN(C5CCC(=O)NC5=O)C6=O)C(=O)OC(C)C(C)SSC[C@H](N)C(=O)N[C@H](Cc5ccccc5)C(=O)N[C@H]5CSSC[C@@H](C(=O)N[C@H](CO)[C@@H](C)O)NC(=O)[C@H]([C@@H](C)O)NC(=O)[C@H](CCCCN)NC(=O)[C@@H](Cc6c[nH]c7ccccc67)NC(=O)[C@H](Cc6ccccc6)NC5=O)CC4)CC3)cc2)ncc1Cl (stereo partly shown) [UB-181243]						240	668	> 1000	311	EC50 (Human Colon Cancer HT-29): > 1000 nM
CNC(=O)c1ccccc1Nc1nc(Nc2ccc(N3CCN(C(=O)N[C@H]4CC[C@@H](N(CCC#Cc5ccc6c(c5)CN(C5CCC(=O)NC5=O)C6=O)C(=O)OCc5ccc(NC(=O)[C@H](CCCNC(N)=O)NC(=O)[C@@H](NC(=O)CCCCCN6C(=O)CC(SC[C@H](N)C(=O)N[C@H](Cc7ccccc7)C(=O)N[C@H]7CSSC[C@@H](C(=O)N[C@H](CO)[C@@H](C)O)NC(=O)[C@H]([C@@H](C)O)NC(=O)[C@H](CCCCN)NC(=O)[C@@H](Cc8c[nH]c9ccccc89)NC(=O)[C@H](Cc8ccccc8)NC7=O)C6=O)C(C)C)cc5)CC4)CC3)cc2)ncc1Cl (stereo partly shown) [UB-181246]						298	515	> 1000	236	EC50 (Human Colon Cancer HT-29): > 1000 nM
CNC(=O)c1ccccc1Nc1nc(Nc2ccc(N3CCN(C(=O)NC4CCC(N(CCC#Cc5ccc6c(c5)CN(C5CCC(=O)NC5=O)C6=O)C(=O)OCc5ccc(NC(=O)[C@H](CC(N)=O)NC(=O)[C@H](C)NC(=O)[C@H](C)NC(=O)CCCCCN6C(=O)CC(SC[C@H](N)C(=O)N[C@H](Cc7ccccc7)C(=O)N[C@H]7CSSC[C@@H](C(=O)N[C@H](CO)[C@@H](C)O)NC(=O)[C@H]([C@@H](C)O)NC(=O)[C@H](CCCCN)NC(=O)[C@@H](Cc8c[nH]c9ccccc89)NC(=O)[C@H](Cc8ccccc8)NC7=O)C6=O)cc5)CC4)CC3)cc2)ncc1Cl (stereo partly shown) [UB-181247]						91.4	168	> 1000	169	EC50 (Human Colon Cancer HT-29): > 1000 nM
CNC(=O)c1ccccc1Nc1nc(Nc2ccc(N3CCN(C(=O)NC4CCC(N(CCC#Cc5ccc6c(c5)CN(C5CCC(=O)NC5=O)C6=O)C(=O)OCc5ccc(NC(=O)[C@H](CC(N)=O)NC(=O)[C@H](C)NC(=O)[C@H](C)NC(=O)CCCCCN6C(=O)CC(SC[C@H](NC(=O)CC[C@H](NC(=O)c7ccc(NCc8cnc9nc(N)[nH]c(=O)c9n8)cc7)C(=O)O)C(=O)N[C@H](Cc7ccccc7)C(=O)N[C@H]7CSSC[C@@H](C(=O)N[C@H](CO)[C@@H](C)O)NC(=O)[C@H]([C@@H](C)O)NC(=O)[C@H](CCCCN)NC(=O)[C@@H](Cc8c[nH]c9ccccc89)NC(=O)[C@H](Cc8ccccc8)NC7=O)C6=O)cc5)CC4)CC3)cc2)ncc1Cl (stereo partly shown) [UB-181263]						53	> 1000	192	9.1	EC50 (Human Colon Cancer HT-29): > 1000 nM
CNC(=O)c1ccccc1Nc1nc(Nc2ccc(N3CCN(C(=O)N[C@H]4CC[C@@H](N(CCC#Cc5ccc6c(c5)CN(C5CCC(=O)NC5=O)C6=O)C(=O)OC(C)C(C)SSC[C@H](NC(=O)CC[C@H](NC(=O)c5ccc(NCc6cnc7nc(N)[nH]c(=O)c7n6)cc5)C(=O)O)C(=O)N[C@H](Cc5ccccc5)C(=O)N[C@H]5CSSC[C@@H](C(=O)N[C@H](CO)[C@@H](C)O)NC(=O)[C@H]([C@@H](C)O)NC(=O)[C@H](CCCCN)NC(=O)[C@@H](Cc6c[nH]c7ccccc67)NC(=O)[C@H](Cc6ccccc6)NC5=O)CC4)CC3)cc2)ncc1Cl (stereo partly shown) [UB-181266]						152	> 1000	> 1000	234	EC50 (Human Colon Cancer HT-29): > 1000 nM
C[C@H](NC(=O)CCCCCN1C(=O)C=CC1=O)C(=O)N[C@@H](C)C(=O)N[C@@H](CC(N)=O)C(=O)Nc1ccc(COC(=O)N(CCC#Cc2ccc3c(c2)CN(C2CCC(=O)NC2=O)C3=O)C2CCC(NC(=O)N3CCN(c4ccc(Nc5ncc(Cl)c(Nc6ccccc6C(N)=O)n5)cc4)CC3)CC2)cc1 (stereo partly shown) [UB-181295]	953				484					EC50 [1, 5]: 106 nM; EC50 ([4]; Homo sapiens, COLO 205): 136 nM

Second part, led by results:

EC50 ([3]; Homo sapiens, NCI-H69) [nM]	EC50 [1, 7] [nM]	EC50 [2, 8] [nM]	EC50 ([4]; Homo sapiens, COLO 205, 72 h) [nM]	Compound	EC50 (Human Colon Cancer HT-29; Homo sapiens) [nM]	EC50 [1, 9] [nM]	EC50 [2, 10] [nM]	EC50 [3] [nM]	EC50 [4] [nM]	further results
> 1000	37	92	40.1	CNC(=O)c1ccccc1Nc1nc(Nc2ccc(N3CCN(C(=O)NC4CCN(CCNCCC#Cc5ccc6c(c5)CN(C5CCC(=O)NC5=O)C6=O)CC4)CC3)cc2)ncc1Cl (stereo not shown) [UB-181240]	181					
> 1000	386	66.1	52	CNC(=O)c1ccccc1Nc1nc(Nc2ccc(N3CCC(C(=O)N4CCC5(CC4)CC(NCCC#Cc4ccc6c(c4)CN(C4CCC(=O)NC4=O)C6=O)C5)CC3)cc2)ncc1Cl (stereo not shown) [UB-181249]						
> 1000	53.7	20.5	48.2	CNC(=O)c1ccccc1Nc1nc(Nc2ccc(N3CCN(C(=O)N[C@H]4C[C@@H](NCCC#Cc5ccc6c(c5)CN(C5CCC(=O)NC5=O)C6=O)C4)CC3)cc2)ncc1Cl (stereo partly shown) [UB-181250]						
> 1000	32.4	71.9	133	NC(=O)c1ccccc1Nc1nc(Nc2ccc(N3CCN(C(=O)N[C@H]4CC[C@@H](NC5CN(CCC#Cc6ccc7c(c6)CN(C6CCC(=O)NC6=O)C7=O)C5)CC4)CC3)cc2)ncc1Cl (stereo partly shown) [UB-181251]						
> 1000	42.3	71.8	59.4	CNC(=O)c1ccccc1Nc1nc(Nc2ccc(N3CCN(C(=O)N[C@H]4C[C@@H](NCC#Cc5ccc6c(c5)CN(C5CCC(=O)NC5=O)C6=O)C4)CC3)cc2)ncc1Cl (stereo partly shown) [UB-181257]						
31.3	23.8	24.6	37.7	NC(=O)c1ccccc1Nc1nc(Nc2ccc(N3CCN(C(=O)N[C@H]4C[C@@H](NCC#Cc5ccc6c(c5)CN(C5CCC(=O)NC5=O)C6=O)C4)CC3)cc2)ncc1Cl (stereo partly shown) [UB-181258]	401					
19.1	20.9	111	33.9	NC(=O)c1ccccc1Nc1nc(Nc2ccc(N3CCN(C(=O)N[C@H]4C[C@@H](NCCC#Cc5ccc6c(c5)CN(C5CCC(=O)NC5=O)C6=O)C4)CC3)cc2)ncc1Cl (stereo partly shown) [UB-181259]	194					
61.2	24.9	23.6	24.8	NC(=O)c1ccccc1Nc1nc(Nc2ccc(N3CCN(C(=O)N[C@H]4C[C@H](NCCC#Cc5ccc6c(c5)CN(C5CCC(=O)NC5=O)C6=O)C4)CC3)cc2)ncc1Cl (stereo partly shown) [UB-181261]						
